In patent US20260306503A1, “(S)-2-HYDROXY-6-((4-(2-(2-HYDROXYETHYL)NICOTINOYL)MORPHOLIN-3-YL)METHOXY)BENZALDEHYD FOR USE IN THE TREATMENT OF SICKLE CELL DISEASE” (Global Blood Therapeutics, Inc., priority 2023, published 2026):

System: participants with SCD
Experiment: Preliminary blood analysis of SCD patients given oral Compound I, 300 mg QD for 14 days then 200 mg QD through Week 12 (Part A Sub Study 2);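 for Bilirubin total: values in mg/dL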
Type: in vivo, human
Details: for Bilirubin total: Day 0 (screening) 4.84
Experimental: Part A of this study is a Phase 2 randomized, open-label, dose-finding study in approximately 60 adult participants with SCD. The primary objective of Part A of this study is to assess the effects of Compound I in adult participants with SCD as measured by change in hemoglobin.
Participants are screened for eligibility in the study from Day −28 through Day −1. Eligible participants are randomized on Day 1 based on a 1:1 (100 mg: 150 mg) allocation and will receive their initial dose (loading dose) of Compound I. After completion of Day 1 assessments and subsequent loading doses, participants will continue with administration of their maintenance dose daily through Week 12.
Some newly enrolled participants in Part A will receive a loading dose regimen of 300 mg of Compound I once daily over the first 14 days. Participants will then receive 200 mg once daily maintenance doses through Week 12.

`O=Cc1c(O)cccc1OC[C@@H]1COCCN1C(=O)c1cccnc1CCO` [Compound I, (S)-2-hydroxy-6-((4-(2-(2-hydroxyethyl)nicotinoyl)morpholin-3-yl)methoxy)benzaldehyde] was tested, and the “Hematocrit (HCT)” value (Patient B, Day 43, Day 0 (screening) 23.5) was 45.4%, the “Aspartate Aminotransferase (AST)” value (Patient B, Day 43, Day 0 (screening) 41.1) was 27.1 IU/L and the Alkaline phosphatase (Patient B, Day 43, Day 0 (screening) 49.3) was 67.6 IU/L. For the same molecule, the Platelet count (Patient B, Day 43, Day 0 (screening) 360) was 260 K/μL, the “Lactate dehydrogenase (LDH)” value (Patient B, Day 43, Day 0 (screening) 371) was 151 IU/L and the Bilirubin direct (Patient B, Day 57, Day 0 (screening) 0.18) was 0.18 mg/dL. For the same molecule, the Bilirubin indirect (Patient B, Day 57, Day 0 (screening) 4.66) was 0.39 mg/dL, the Bilirubin total (Patient B, Day 57) was 0.57 mg/dL and the Absolute neutrophil (Patient B, Day 57, Day 0 (screening) 6.9) was 5.5 K/μL. For the same molecule, the “Hemoglobin (HGB)” value (Patient B, Day 57, Day 0 (screening) 8.3) was 14.3 g/dL, the Reticulocytes (Patient B, Day 57, Day 0 (screening) 11.5) was 0.9% and the “Alanine Aminotransferase (ALT)” value (Patient B, Day 57, Day 0 (screening) 22.0) was 17.9 IU/L. The “Hematocrit (HCT)” value (Patient B, Day 57, Day 0 (screening) 23.5) was 42.6%, the “Aspartate Aminotransferase (AST)” value (Patient B, Day 57, Day 0 (screening) 41.1) was 26.2 IU/L and the Alkaline phosphatase (Patient B, Day 57, Day 0 (screening) 49.3) was 69.6 IU/L. For the same molecule, the Platelet count (Patient B, Day 57, Day 0 (screening) 360) was 290 K/μL, the “Lactate dehydrogenase (LDH)” value (Patient B, Day 57, Day 0 (screening) 371) was 152 IU/L and the Bilirubin direct (Patient B, Day 85, Day 0 (screening) 0.18) was less than 0.01 mg/dL. The Bilirubin total (Patient B, Day 85) was 0.94 mg/dL, the Absolute neutrophil (Patient B, Day 85, Day 0 (screening) 6.9) was 5.6 K/μL and the “Hemoglobin (HGB)” value (Patient B, Day 85, Day 0 (screening) 8.3) was 14.9 g/dL. The Reticulocytes (Patient B, Day 85, Day 0 (screening) 11.5) was 1.1%, the “Alanine Aminotransferase (ALT)” value (Patient B, Day 85, Day 0 (screening) 22.0) was 20.0 IU/L and the “Hematocrit (HCT)” value (Patient B, Day 85, Day 0 (screening) 23.5) was 43.7%. For the same molecule, the “Aspartate Aminotransferase (AST)” value (Patient B, Day 85, Day 0 (screening) 41.1) was 27.1 IU/L, the Alkaline phosphatase (Patient B, Day 85, Day 0 (screening) 49.3) was 72.6 IU/L and the Platelet count (Patient B, Day 85, Day 0 (screening) 360) was 256 K/μL. For the same molecule, the “Lactate dehydrogenase (LDH)” value (Patient B, Day 85, Day 0 (screening) 371) was 141 IU/L, the Bilirubin direct (Patient C, Day 1, Day 0 (screening) 0.58) was 0.58 mg/dL and the Bilirubin indirect (Patient C, Day 1, Day 0 (screening) 4.26) was 4.87 mg/dL. For the same molecule, the Bilirubin total (Patient C, Day 1) was 5.45 mg/dL, the “Alanine Aminotransferase (ALT)” value (Patient C, Day 1, Day 0 (screening) 20.0) was 24.8 IU/L and the “Aspartate Aminotransferase (AST)” value (Patient C, Day 1, Day 0 (screening) 48.0) was 62.0 IU/L. The Alkaline phosphatase (Patient C, Day 1, Day 0 (screening) 52.4) was 51.4 IU/L, the “Lactate dehydrogenase (LDH)” value (Patient C, Day 1, Day 0 (screening) 533) was 691 IU/L and the Bilirubin direct (Patient C, Day 8, Day 0 (screening) 0.58) was 0.38 mg/dL. The Absolute neutrophil (Patient C, Day 8, Day 0 (screening) 0.8) was 6.7 K/μL, the Bilirubin indirect (Patient C, Day 8, Day 0 (screening) 4.26) was 3.85 mg/dL and the Bilirubin total (Patient C, Day 8) was 4.23 mg/dL. The “Hemoglobin (HGB)” value (Patient C, Day 8, Day 0 (screening) 7.1) was 9.1 g/dL, the Reticulocytes (Patient C, Day 8, Day 0 (screening) 13.7) was 9.9% and the “Alanine Aminotransferase (ALT)” value (Patient C, Day 8, Day 0 (screening) 20.0) was 28.9 IU/L. For the same molecule, the “Hematocrit (HCT)” value (Patient C, Day 8, Day 0 (screening) 21.0) was 25.9%, the “Aspartate Aminotransferase (AST)” value (Patient C, Day 8, Day 0 (screening) 48.0) was 57.0 IU/L and the Alkaline phosphatase (Patient C, Day 8, Day 0 (screening) 52.4) was 61.5 IU/L. The Platelet count (Patient C, Day 8, Day 0 (screening) 392) was 405 K/μL, the “Lactate dehydrogenase (LDH)” value (Patient C, Day 8, Day 0 (screening) 533) was 545 IU/L and the Bilirubin direct (Patient C, Day 15, Day 0 (screening) 0.58) was 0.38 mg/dL. The Absolute neutrophil (Patient C, Day 15, Day 0 (screening) 0.8) was 3.9 K/μL, the Bilirubin indirect (Patient C, Day 15, Day 0 (screening) 4.26) was 3.12 mg/dL and the Bilirubin total (Patient C, Day 15) was 3.50 mg/dL. The “Hemoglobin (HGB)” value (Patient C, Day 15, Day 0 (screening) 7.1) was 10.2 g/dL, the Reticulocytes (Patient C, Day 15, Day 0 (screening) 13.7) was 5.0% and the “Alanine Aminotransferase (ALT)” value (Patient C, Day 15, Day 0 (screening) 20.0) was 18.6 IU/L. The “Hematocrit (HCT)” value (Patient C, Day 15, Day 0 (screening) 21.0) was 29.8%, the “Aspartate Aminotransferase (AST)” value (Patient C, Day 15, Day 0 (screening) 48.0) was 34.1 IU/L and the Alkaline phosphatase (Patient C, Day 15, Day 0 (screening) 52.4) was 54.4 IU/L. The Platelet count (Patient C, Day 15, Day 0 (screening) 392) was 482 K/μL, the “Lactate dehydrogenase (LDH)” value (Patient C, Day 15, Day 0 (screening) 533) was 327 IU/L and the Bilirubin direct (Patient C, Day 29, Day 0 (screening) 0.58) was 0.38 mg/dL. The Absolute neutrophil (Patient C, Day 29, Day 0 (screening) 0.8) was 2.6 K/μL, the Bilirubin indirect (Patient C, Day 29, Day 0 (screening) 4.26) was 2.51 mg/dL and the Bilirubin total (Patient C, Day 29) was 2.89 mg/dL. For the same molecule, the “Hemoglobin (HGB)” value (Patient C, Day 29, Day 0 (screening) 7.1) was 11.6 g/dL, the Reticulocytes (Patient C, Day 29, Day 0 (screening) 13.7) was 1.8% and the “Alanine Aminotransferase (ALT)” value (Patient C, Day 29, Day 0 (screening) 20.0) was 17.2 IU/L. The “Hematocrit (HCT)” value (Patient C, Day 29, Day 0 (screening) 21.0) was 33.9%, the “Aspartate Aminotransferase (AST)” value (Patient C, Day 29, Day 0 (screening) 48.0) was 39.1 IU/L and the Alkaline phosphatase (Patient C, Day 29, Day 0 (screening) 52.4) was 51.4 IU/L. For the same molecule, the Platelet count (Patient C, Day 29, Day 0 (screening) 392) was 357 K/μL, the “Lactate dehydrogenase (LDH)” value (Patient C, Day 29, Day 0 (screening) 533) was 256 IU/L and the Bilirubin direct (Patient C, Day 43, Day 0 (screening) 0.58) was 0.28 mg/dL. The Absolute neutrophil (Patient C, Day 43, Day 0 (screening) 0.8) was 1.0 K/μL, the Bilirubin indirect (Patient C, Day 43, Day 0 (screening) 4.26) was 4.44 mg/dL and the Bilirubin total (Patient C, Day 43) was 4.72 mg/dL. For the same molecule, the “Hemoglobin (HGB)” value (Patient C, Day 43, Day 0 (screening) 7.1) was 10.5 g/dL, the Reticulocytes (Patient C, Day 43, Day 0 (screening) 13.7) was 2.8% and the “Alanine Aminotransferase (ALT)” value (Patient C, Day 43, Day 0 (screening) 20.0) was 26.8 IU/L. For the same molecule, the “Hematocrit (HCT)” value (Patient C, Day 43, Day 0 (screening) 21.0) was 30.1%, the “Aspartate Aminotransferase (AST)” value (Patient C, Day 43, Day 0 (screening) 48.0) was 46.1 IU/L and the Alkaline phosphatase (Patient C, Day 43, Day 0 (screening) 52.4) was 58.5 IU/L. The Platelet count (Patient C, Day 43, Day 0 (screening) 392) was 416 K/μL, the “Lactate dehydrogenase (LDH)” value (Patient C, Day 43, Day 0 (screening) 533) was 291 IU/L and the Bilirubin direct (Patient C, Day 57, Day 0 (screening) 0.58) was 0.18 mg/dL. The Absolute neutrophil (Patient C, Day 57, Day 0 (screening) 0.8) was 4.3 K/μL, the Bilirubin indirect (Patient C, Day 57, Day 0 (screening) 4.26) was 3.44 mg/dL and the Bilirubin total (Patient C, Day 57) was 3.62 mg/dL. For the same molecule, the “Hemoglobin (HGB)” value (Patient C, Day 57, Day 0 (screening) 7.1) was 10.4 g/dL, the Reticulocytes (Patient C, Day 57, Day 0 (screening) 13.7) was 4.2% and the “Alanine Aminotransferase (ALT)” value (Patient C, Day 57, Day 0 (screening) 20.0) was 21.3 IU/L. For the same molecule, the “Hematocrit (HCT)” value (Patient C, Day 57, Day 0 (screening) 21.0) was 28.9%, the “Aspartate Aminotransferase (AST)” value (Patient C, Day 57, Day 0 (screening) 48.0) was 46.1 IU/L and the Alkaline phosphatase (Patient C, Day 57, Day 0 (screening) 52.4) was 56.4 IU/L. The Platelet count (Patient C, Day 57, Day 0 (screening) 392) was 413 K/μL, the “Lactate dehydrogenase (LDH)” value (Patient C, Day 57, Day 0 (screening) 533) was 296 IU/L and the Bilirubin direct (Patient C, Day 85, Day 0 (screening) 0.58) was less than 0.01 mg/dL. For the same molecule, the Absolute neutrophil (Patient C, Day 85, Day 0 (screening) 0.8) was 4.9 K/μL, the Bilirubin total (Patient C, Day 85) was 3.62 mg/dL and the “Hemoglobin (HGB)” value (Patient C, Day 85, Day 0 (screening) 7.1) was 10.0 g/dL. For the same molecule, the Reticulocytes (Patient C, Day 85, Day 0 (screening) 13.7) was 5.9%, the “Alanine Aminotransferase (ALT)” value (Patient C, Day 85, Day 0 (screening) 20.0) was 20.6 IU/L and the “Hematocrit (HCT)” value (Patient C, Day 85, Day 0 (screening) 21.0) was 28.2%. The “Aspartate Aminotransferase (AST)” value (Patient C, Day 85, Day 0 (screening) 48.0) was 39.1 IU/L, the Alkaline phosphatase (Patient C, Day 85, Day 0 (screening) 52.4) was 55.4 IU/L and the Platelet count (Patient C, Day 85, Day 0 (screening) 392) was 457 K/μL. For the same molecule, the “Lactate dehydrogenase (LDH)” value (Patient C, Day 85, Day 0 (screening) 533) was 276 IU/L.
